Source: patent US8962658B2, “Fluoralkylcarbonyl-oxadiazoles” (Universite de Droit et de la Sante de Lille 2, priority 2011, dated 2015)
Converted amounts (≈) assume the structure as drawn.

Legend:
[1] = Pharmacokinetic experiments (DMSO formulation); format: in vivo, Swiss mice; details: mice, oral, dose 20 mg/kg, vehicle 100% DMSO
Method: Pharmacokinetic experiments (DMSO Formulation). Compounds were administered at 20 mg per kg body weight by oral route to Swiss mice (22-24 g) (WIV-ISP breeding). Three mice per time point were anesthetized with ketamine-xyalzine and bled them at 10 min, 20 min, 30 min, 1 h, 2 h, 3 h and 6 h after administration of a single dose of ligands. Blood was collected from the brachial region on lithium heparinated tubes in order to prevent coagulation.
(§1) Plasma samples preparation. Plasma samples were thawed on ice. Aliquots of 50 μL were precipitated with 450 μL of ice cold acetonitrile containing internal standard (1 μM). The samples were vigorously mixed with a Vortex, centrifuged at 10000 rpm, at 4° C. for 10 min and the supernatants were transferred into Matrix tubes for LC-MS-MS analysis. Spiked standard solutions (10, 50, 100, 500, 1000, 5000, 10000 and 50000 nM) were prepared the same way.

[2] = Pharmacokinetic experiments (aqueous hydroxypropyl-β-cyclodextrin formulation); format: in vivo, CD1 female mice; details: mice, single oral dose 20 mg/kg, vehicle aqueous 100 mM hydroxypropyl-β-cyclodextrin
Method: Pharmacokinetic experiments (aqueous hydroxypropyl-β-cyclodextrin Formulation). Compounds solubilized in aqueous hydroxypropyl-β-cyclodextrin solution (100 mM) were administered in single dose (20 mg/kg) to CD1 female mice (25-30 g) (Charles River Laboratories). […] Mice were immediately sacrificed by cervical dislocation. Three mice were dosed per kinetics time point.
as §1

[3] = in vitro; details: CD-1, mouse, microsomes, pH 7.4
[4] = system: M. tuberculosis H37Rv-GFP in Raw264.7 macrophages; experiment: microbe, parasite or virus in culture; format: cell-based; details: Mycobacterium tuberculosis
[5] = pH 7.4, PBS
[6] = physchem; details: pH 7.4, aqueous buffer, kinetic from dmso stock
[7] = RAW264.7, Table 1, […], mean of two experiments

SMILES	AUC∞ [1] [ng·h/mL]	AUC∞ [2] [ng·h/mL]	microsomal CLint [3] [µL/min/mg]	EC50 ([4]; RAW264.7) [nM]	EC50 [4, 7] [nM]	Solubility [5] [µg/mL]	microsomal CLint at 1 μM [3] [µL/min/mg]	solubility at 24 h [6] [µg/mL]
O=C(CCC(F)(F)F)N1CCC(c2nc(-c3nccs3)no2)CC1 [Compound 5, 4,4,4-Trifluoro-1-[4-(3-thiazol-2-yl-1,2,4-oxadiazol-5-yl)-piperidin-1-yl]-butan-1-one]	73500	100500	37	≤ 500	500	300 (≈ 832 µM)		
O=C(CCC(F)(F)F)N1CCC(c2nc(-c3ccccc3)no2)CC1 [Compound 8, 4,4,4-Trifluoro-1-[4-(3-phenyl-1,2,4-oxadiazol-5-yl)-piperidin-1-yl]-butan-1-one]				≤ 500	500	40 (≈ 113 µM)		
O=C(CCCC(F)(F)F)N1CCC(c2nc(-c3ccccc3)no2)CC1 [Compound 45, 5,5,5-trifluoro-1-[4-(3-phenyl-1,2,4-oxadiazol-5-yl)piperidin-1-yl]pentan-1-one]				100			73	80 (≈ 218 µM)
O=C(CCCC(F)(F)F)N1CCC(c2nc(-c3cccs3)no2)CC1 [Compound 44, 5,5,5-trifluoro-1-{4-[3-(thiophen-2-yl)-1,2,4-oxadiazol-5-yl]piperidin-1-yl}pentan-1-one]				70				
COc1ccc2nc(-c3noc(C4CCN(C(=O)CCC(F)(F)F)CC4)n3)sc2c1 [Compound 7, 4,4,4-Trifluoro-1-{4-[3-(6-methoxy-benzothiazol-2-yl)-1,2,4-oxadiazol-5-yl]-piperidin-1-yl}-butan-1-one]			197		200	6 (≈ 13.6 µM)		
O=C(CCCC(F)(F)F)N1CCC(c2nc(-c3nccs3)no2)CC1 [Compound 42, 5,5,5-Trifluoro-1-[4-(3-thiazol-2-yl-1,2,4-oxadiazol-5-yl)-piperidin-1-yl]-pentan-1-one]		98600	15	60		410 (≈ 1100 µM)		
O=C(CCC(F)(F)F)N1CC[C@@H](c2nc(-c3nccs3)no2)C1 [Compound 41, 4,4,4-trifluoro-1-[(3R)-3-[3-(1,3-thiazol-2-yl)-1,2,4-oxadiazol-5-yl]pyrrolidin-1-yl]butan-1-one]				6300				
O=C(CCC(F)(F)F)N1CC[C@@H](c2nc(-c3cccs3)no2)C1 [Compound 2]	100		4	400		80 (≈ 232 µM)		
CS(=O)(=O)c1ccc(-c2noc(C3CCN(C(=O)CCCC(F)(F)F)CC3)n2)cc1 [Compound 46, 5,5,5-trifluoro-1-{4-[3-(4-methanesulfonylphenyl)-1,2,4-oxadiazol-5-yl]piperidin-1-yl}pentan-1-one]				20			14	80 (≈ 180 µM)
O=C(CCC(F)(F)F)N1CCC(c2nc(-c3cccs3)no2)CC1 [Compound 3, 4-4-4-trifluoro-1-[4-(3-thiophen-2-yl-[1,2,4]oxadiazol-5-yl)-piperidin-1-yl]butan-1-one, reference compound]			213	100	100	150 (≈ 417 µM)		
O=C(CCCC(F)(F)F)N1CC[C@@H](c2nc(-c3cccs3)no2)C1 [Compound 43, 5,5,5-trifluoro-1-[(3R)-3-[3-(thiophen-2-yl)-1,2,4-oxadiazol-5-yl]pyrrolidin-1-yl]pentan-1-one]				100			297	237 (≈ 659 µM)
O=C(CCC(F)(F)F)N1CCC(c2nc(C3CCCC3)no2)CC1 [Compound 32, 1-[4-(3-Cyclopentyl-1,2,4-oxadiazol-5-yl)-piperidin-1-yl]-4,4,4-trifluoro-butan-1-one]					800			
